How the values were obtained:
[1] = biological target: D(1A) dopamine receptor (Homo sapiens, UniProt P21728)
[2] = biological target: D(2) dopamine receptor (Homo sapiens, UniProt P14416)
[3] = biological target: 5-hydroxytryptamine receptor 2A (Rattus norvegicus, UniProt P14842)
[4] = biological target: T1, 5-hydroxytryptamine receptor 1A (Homo sapiens, UniProt P08908)
T1 sequence (P08908 whole entry): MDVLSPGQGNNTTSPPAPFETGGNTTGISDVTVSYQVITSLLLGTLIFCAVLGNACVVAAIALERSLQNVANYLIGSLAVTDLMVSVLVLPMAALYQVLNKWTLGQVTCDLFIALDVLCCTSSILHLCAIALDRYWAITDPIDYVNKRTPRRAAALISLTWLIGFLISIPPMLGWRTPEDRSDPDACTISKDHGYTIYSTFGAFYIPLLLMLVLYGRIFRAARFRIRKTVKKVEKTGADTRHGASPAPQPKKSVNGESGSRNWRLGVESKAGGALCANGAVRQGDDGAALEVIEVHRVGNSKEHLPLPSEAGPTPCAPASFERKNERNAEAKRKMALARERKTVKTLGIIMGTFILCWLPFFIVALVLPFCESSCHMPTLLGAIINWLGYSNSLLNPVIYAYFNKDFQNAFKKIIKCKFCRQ

[5] = biological target: T2, Prostaglandin D2 receptor (Homo sapiens, UniProt Q13258)
T2 sequence (Q13258 whole entry): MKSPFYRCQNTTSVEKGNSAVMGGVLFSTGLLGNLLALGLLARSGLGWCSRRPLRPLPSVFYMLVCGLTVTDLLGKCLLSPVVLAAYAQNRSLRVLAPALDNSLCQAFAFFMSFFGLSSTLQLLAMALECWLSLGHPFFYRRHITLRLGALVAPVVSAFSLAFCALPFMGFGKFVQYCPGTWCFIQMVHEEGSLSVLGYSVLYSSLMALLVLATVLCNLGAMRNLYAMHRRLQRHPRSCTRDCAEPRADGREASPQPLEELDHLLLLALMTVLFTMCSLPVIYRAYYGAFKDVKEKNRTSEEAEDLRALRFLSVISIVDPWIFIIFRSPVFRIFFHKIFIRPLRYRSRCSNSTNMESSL

[6] = biological target: Histamine H1 receptor (Homo sapiens, UniProt P35367)
Sequence of Histamine H1 receptor (P35367 whole entry): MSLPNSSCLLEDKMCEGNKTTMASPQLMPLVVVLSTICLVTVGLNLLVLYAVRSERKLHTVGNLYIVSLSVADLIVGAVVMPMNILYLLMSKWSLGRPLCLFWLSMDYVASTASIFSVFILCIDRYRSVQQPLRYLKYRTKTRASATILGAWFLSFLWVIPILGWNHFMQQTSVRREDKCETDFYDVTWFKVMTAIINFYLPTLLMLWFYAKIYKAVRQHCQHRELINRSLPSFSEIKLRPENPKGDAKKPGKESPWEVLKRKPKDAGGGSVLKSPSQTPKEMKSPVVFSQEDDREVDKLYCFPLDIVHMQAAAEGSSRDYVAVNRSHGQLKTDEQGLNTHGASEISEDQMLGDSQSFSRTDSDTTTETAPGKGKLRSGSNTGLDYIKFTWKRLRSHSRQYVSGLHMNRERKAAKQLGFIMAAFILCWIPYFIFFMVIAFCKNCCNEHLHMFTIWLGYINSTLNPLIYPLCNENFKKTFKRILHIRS

[7] = biological target: T3, Cysteinyl leukotriene receptor 1 (Homo sapiens, UniProt Q9Y271)
T3 sequence (Q9Y271 whole entry): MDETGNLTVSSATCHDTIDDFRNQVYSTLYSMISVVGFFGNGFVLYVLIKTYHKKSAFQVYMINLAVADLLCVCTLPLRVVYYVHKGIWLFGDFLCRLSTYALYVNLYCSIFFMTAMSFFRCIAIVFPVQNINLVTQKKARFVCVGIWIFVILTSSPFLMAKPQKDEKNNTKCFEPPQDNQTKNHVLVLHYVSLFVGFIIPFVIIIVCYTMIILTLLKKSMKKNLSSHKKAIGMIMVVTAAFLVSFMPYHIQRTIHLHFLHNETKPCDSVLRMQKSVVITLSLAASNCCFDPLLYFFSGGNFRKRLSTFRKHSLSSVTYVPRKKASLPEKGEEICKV

[8] = biological target: T4, Muscarinic acetylcholine receptor M1 (Homo sapiens, UniProt P11229)
T4 sequence (P11229 whole entry): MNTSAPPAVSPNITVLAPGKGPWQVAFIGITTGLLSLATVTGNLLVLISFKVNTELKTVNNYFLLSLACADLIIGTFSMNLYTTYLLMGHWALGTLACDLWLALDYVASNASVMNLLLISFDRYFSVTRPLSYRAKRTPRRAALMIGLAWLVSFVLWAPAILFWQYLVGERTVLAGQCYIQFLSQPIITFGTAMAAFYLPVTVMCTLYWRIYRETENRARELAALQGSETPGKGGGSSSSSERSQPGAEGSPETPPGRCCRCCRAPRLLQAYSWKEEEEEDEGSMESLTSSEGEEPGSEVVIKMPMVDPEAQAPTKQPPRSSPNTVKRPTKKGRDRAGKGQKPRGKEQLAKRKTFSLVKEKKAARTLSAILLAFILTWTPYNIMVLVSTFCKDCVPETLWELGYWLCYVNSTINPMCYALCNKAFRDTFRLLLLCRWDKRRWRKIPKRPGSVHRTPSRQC

[9] = biological target: T5, Polyunsaturated fatty acid 5-lipoxygenase (Homo sapiens, UniProt P09917)
T5 sequence (P09917 whole entry): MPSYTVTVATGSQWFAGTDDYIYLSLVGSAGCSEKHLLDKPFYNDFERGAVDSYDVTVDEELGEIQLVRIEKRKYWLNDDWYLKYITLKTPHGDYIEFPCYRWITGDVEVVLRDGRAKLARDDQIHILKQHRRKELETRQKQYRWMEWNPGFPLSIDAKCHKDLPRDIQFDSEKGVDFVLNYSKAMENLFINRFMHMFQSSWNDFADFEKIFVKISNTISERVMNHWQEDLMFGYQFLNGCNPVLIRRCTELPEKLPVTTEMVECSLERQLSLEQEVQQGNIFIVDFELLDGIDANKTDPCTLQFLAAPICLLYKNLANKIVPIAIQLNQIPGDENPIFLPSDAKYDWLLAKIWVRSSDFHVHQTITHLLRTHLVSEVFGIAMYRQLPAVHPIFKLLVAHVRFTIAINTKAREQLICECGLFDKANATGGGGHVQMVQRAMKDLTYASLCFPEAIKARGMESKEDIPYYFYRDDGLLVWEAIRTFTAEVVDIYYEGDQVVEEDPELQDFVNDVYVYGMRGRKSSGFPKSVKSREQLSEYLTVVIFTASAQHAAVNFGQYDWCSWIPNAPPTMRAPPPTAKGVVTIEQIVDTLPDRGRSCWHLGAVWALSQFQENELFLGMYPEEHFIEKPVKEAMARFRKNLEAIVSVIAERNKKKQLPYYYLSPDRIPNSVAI

Sequence of 5-hydroxytryptamine receptor 2A (P14842 whole entry): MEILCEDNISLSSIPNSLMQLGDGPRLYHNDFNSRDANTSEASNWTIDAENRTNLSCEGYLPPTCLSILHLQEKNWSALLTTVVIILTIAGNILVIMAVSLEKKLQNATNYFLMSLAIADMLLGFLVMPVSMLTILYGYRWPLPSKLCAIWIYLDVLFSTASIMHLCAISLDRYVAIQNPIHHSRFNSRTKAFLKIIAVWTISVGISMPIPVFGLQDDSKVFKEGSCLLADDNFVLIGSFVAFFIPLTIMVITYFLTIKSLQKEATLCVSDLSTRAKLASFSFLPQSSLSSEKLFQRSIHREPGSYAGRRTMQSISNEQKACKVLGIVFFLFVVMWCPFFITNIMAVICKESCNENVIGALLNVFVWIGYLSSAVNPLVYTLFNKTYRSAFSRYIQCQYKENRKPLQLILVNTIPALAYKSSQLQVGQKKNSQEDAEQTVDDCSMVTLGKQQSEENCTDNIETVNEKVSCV
Sequence of D(1A) dopamine receptor (P21728 whole entry): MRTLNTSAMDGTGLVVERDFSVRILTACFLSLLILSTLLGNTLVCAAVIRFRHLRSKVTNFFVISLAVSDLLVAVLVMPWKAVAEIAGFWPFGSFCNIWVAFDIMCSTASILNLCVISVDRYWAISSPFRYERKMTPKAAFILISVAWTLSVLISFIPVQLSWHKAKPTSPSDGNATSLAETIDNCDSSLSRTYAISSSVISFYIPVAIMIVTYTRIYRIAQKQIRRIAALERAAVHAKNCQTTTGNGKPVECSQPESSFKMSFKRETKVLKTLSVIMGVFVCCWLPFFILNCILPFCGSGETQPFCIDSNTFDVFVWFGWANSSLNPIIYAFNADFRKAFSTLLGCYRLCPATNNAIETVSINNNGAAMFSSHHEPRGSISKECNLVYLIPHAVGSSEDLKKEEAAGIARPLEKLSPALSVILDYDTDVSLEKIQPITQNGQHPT
Sequence of D(2) dopamine receptor (P14416 whole entry): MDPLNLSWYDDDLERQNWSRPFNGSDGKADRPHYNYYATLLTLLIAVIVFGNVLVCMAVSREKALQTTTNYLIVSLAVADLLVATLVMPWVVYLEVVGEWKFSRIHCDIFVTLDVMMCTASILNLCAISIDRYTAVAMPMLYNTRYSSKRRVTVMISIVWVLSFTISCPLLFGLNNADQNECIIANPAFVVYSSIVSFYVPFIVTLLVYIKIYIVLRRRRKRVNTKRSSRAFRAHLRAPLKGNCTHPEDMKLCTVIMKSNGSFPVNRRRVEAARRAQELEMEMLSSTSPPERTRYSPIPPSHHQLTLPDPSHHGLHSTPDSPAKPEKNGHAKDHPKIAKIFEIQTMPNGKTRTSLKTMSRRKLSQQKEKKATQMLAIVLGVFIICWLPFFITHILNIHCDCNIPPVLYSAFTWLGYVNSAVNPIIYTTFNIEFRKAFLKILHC

Row | Ki [1] [nM] | Ki [2] [nM] | Ki [3] [nM] | Ki [4] [nM] | Ki [5] [nM] | Ki [6] [nM] | Ki [7] [nM] | Ki [8] [nM] | Ki [9] [nM] | Compound
1 | > 1000 | > 1000 | > 1000 | > 1000 | > 1000 | > 1000 | > 1000 | > 1000 | > 1000 | CC1CC(N(C(=O)C2CC2)c2ccccc2)c2ccccc2N1C(=O)c1ccccc1 (stereo unspecified) [K604]
2 | > 1000 | > 1000 | > 1000 | > 1000 | > 1000 | > 1000 | > 1000 | > 1000 | > 1000 | CCC(=O)N1c2ccccc2C(N(C(C)=O)c2ccccc2)CC1C (stereo unspecified) [K376]
3 | > 1000 | > 1000 | > 1000 | – | > 1000 | > 1000 | > 1000 | > 1000 | > 1000 | CC(C)C(=O)N(c1ccccc1)C1CC(C)N(C(=O)c2ccccc2)c2ccccc21 (stereo unspecified) [K117]

— BindingDB's records for doi:10.1124/jpet.104.081539 (Kyowa Hakko Kogyo, 2005)
